We go through six compounds from PubChem BioAssay AID830 (PCMD, 2007).

This assay deals with Cathepsin B (Homo sapiens) (UniProt P07858). The experiment in a line: CTSB inhibitor potency, concentration-effect curve, cell-free enzymatic assay, actives from pooled-compound high-throughput screen (AID 830). Conditions: purified cathepsin B enzyme activity, signal read-out.

Records with an inconclusive call do not appear.

With `Nc1cc(OC(=O)c2ccco2)nn1S(=O)(=O)c1ccc(F)cc1`, the IC50 was 1260 nM.
With `O=S(=O)(/N=S1/CC=CCN1S(=O)(=O)c1ccccc1)c1ccccc1` (stereo unspecified) the figure was 9390 nM.
For the compound `Nc1nc2n(n1)C1(CCCCC1)C1=C(CCCC1)N2`, the 50% inhibitory concentration (IC50) was 12900 nM.
With `Nc1cc(OC(=O)c2cccs2)nn1S(=O)(=O)c1ccccc1` the figure was 247 nM.
Under `Cc1ccc(S(=O)(=O)n2nc(OC(=O)c3ccco3)cc2N)cc1` stands 1750 nM; under `Cc1ccc(S(=O)(=O)n2nc(OC(=O)c3cccs3)cc2N)cc1`, 1990 nM.

One may read the IC50 as the concentration that inhibits the measured activity by half.
